Measured values published in patent US20180105548A1, “A novel compound (KS-513) isolated from Pseudolysimachion rotundum var. subintegrum, the composition comprising the same preventing or treating allergic disease, inflammatory disease, asthma or chronic obstructive pulmonary disease and the use thereof” (priority 2015, published 2018).

Columns and labels:
[1] = Acute toxicity test of oral administration in rat; settings: Sprague-Dawley, in vivo
Method: The acute toxicity test was performed by administrating inventive compound to 6-weeks aged SPF Sprague-Dawley rats.
After administrating the extract or compounds, all the clinical changes i.e., mortality, clinical signs, body weight changes was observed and blood test such as haematological test and hematological biochemistry test was performed. The abnormal changes of abdominal organ and thoracic organ were observed after autopsy.

IL-6 = assay: mRNA expression of IL-6 in RAW264.7 cell line induced by LPS (real-time PCR); format: cell-based, mouse; settings: for IL-6 mRNA expression, Fold (value compared with a negative group) / IL-6 mRNA expression, Inhibition ratio (IR) compared with LPS treatment group: LPS 1 μg/ml, 12 hours
Method: In order to determine the inhibitory effect on the mRNA expression of pro-inflammatory medicated enzyme such as iNOS or COX-2, and pro-inflammatory medicated cytokines such as IL-1beta, IL-6, TNF-alpha in RAW264.7 cell line induced by LPS, following test using by real-time PCR (real-time polymerase chain reaction, quantitative real time polymerase chain reaction, qPCR) was performed according to the method disclosed in the literature (Livak, K. J., Schimittgen T. D., 2001, Analysis of relative gene expression data using real-time quantitiative PCR and the 2 (-Delta Delta C(T) method, Methods 25, p 402-408):
RAW264.7 cell was inoculated into 6-well-plates in the concentration of 1×10^6 cell/well to incubate for 12 hours. Various concentration of KS-513 compound (2.5, 5, 10 and 20 μM) was pre-treated therewith and 1 μg/mL of LPS (L6529, Sigma) was added thereto to incubate for 12 hours.
To extract total RNA, RNA was extracted using by Triazol B (invitrogen) and cDNA was synthesized using by Omniscript RT kit (205113, Qiagen, Gmbh, Hilden, Germany) after the quantification. The synthesized cDNA was mixed with its template and the primers shown in Table 3 (SEQ.I.D. 1-14), performed to denaturation at 94° C. for 5 mins using by PCR mix (PCR master Mix, Bioneer, Korea), and reacted as follows: 1 cycle for pre-denaturation; at 95° C. for 30 sec, 60° C. for 45 sec, 72° C. for 45 sec, 30 cycles for denaturation; 10 mins at 72° C., 1cycle for final extension. (FIG. 2)

## CO[C@@H]1C[C@H]2[C@H](OC(=O)c3ccc(O)cc3)[C@@H]3O[C@]3(CO)[C@H]2[C@H](O[C@@H]2O[C@H](CO)[C@@H](O)C(O)[C@H]2O)O1 (stereo partly drawn) [KS-513, (1aS, 1bS,2S,4S,5aR,6S,6aS)-1a-(hydroxymethyl)-4-methoxy-2-(((2S,3R,5S,6R)-3,4,5-trihydroxy-6-(hydroxymethyl)tetrahydro-2H-pyran-2-yl)oxy)octahydrooxireno[2′,3′:4,5]cyclopenta[1,2-c]pyran-6-yl 4-hydroxybenzoate]
[1]
  LD50 at 14 days: > 5000 mg/kg
IL-6; 2.5 μM
  IL-6 mRNA expression, Fold (value compared with a negative group): 24.73 ± 2.26 Fold
  IL-6 mRNA expression, Inhibition ratio (IR) compared with LPS treatment group: 20.62%
IL-6; 5 μM
  IL-6 mRNA expression, Fold (value compared with a negative group): 14.24 ± 1.44 Fold
  IL-6 mRNA expression, Inhibition ratio (IR) compared with LPS treatment group: 54.30%
IL-6; 10 μM
  IL-6 mRNA expression, Fold (value compared with a negative group): 8.57 ± 1.23 Fold
  IL-6 mRNA expression, Inhibition ratio (IR) compared with LPS treatment group: 72.50%
IL-6; 20 μM
  IL-6 mRNA expression, Fold (value compared with a negative group): 2.35 ± 0.81 Fold
  IL-6 mRNA expression, Inhibition ratio (IR) compared with LPS treatment group: 92.46%
IL-6; various concentration, compared with control group treated with LPS (100%)
  expressed level of mRNA of IL-6: significantly decreased in a dose dependent manner
